Laboratory results as given in paper PMC11365428 (The Journal of Biological Chemistry, 2024).
Non-standard residues stand in square brackets, D forms with d. Residues, ends and D or L forms follow the SMILES beside them. pGlu = O=C1CC[C@@H](C(=O)O)N1

Biological target: T1, apTKRPR-A (Aplysia californica, UniProt A0AAU7SSZ1)
T1 sequence (A0AAU7SSZ1 1-398): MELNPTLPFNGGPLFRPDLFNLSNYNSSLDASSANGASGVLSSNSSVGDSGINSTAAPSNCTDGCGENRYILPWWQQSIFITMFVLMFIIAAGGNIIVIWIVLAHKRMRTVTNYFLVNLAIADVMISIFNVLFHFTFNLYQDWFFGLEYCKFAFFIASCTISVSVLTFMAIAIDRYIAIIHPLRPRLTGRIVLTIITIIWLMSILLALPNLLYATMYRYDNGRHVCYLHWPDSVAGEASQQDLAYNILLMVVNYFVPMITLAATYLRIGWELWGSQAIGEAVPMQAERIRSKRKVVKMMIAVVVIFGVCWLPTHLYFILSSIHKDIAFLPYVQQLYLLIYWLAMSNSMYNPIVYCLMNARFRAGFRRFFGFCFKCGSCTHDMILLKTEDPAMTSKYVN
Experiment: Receptor desensitization assay, protocol 2 (repeated agonist exposure), apTKRPR-A
Type: cell-based
Settings: 10 μM pretreatment 2-60 min without LiCl, wash, second 10 μM application for 15 min with LiCl; % of control; n = 5
Method: Therefore, we adopted two protocols to study the desensitization of apTKRPRs. The protocols were performed using a procedure modified from previous work ([87], [88], [89]).
Protocol 2 ([89]): To simulate repeated stimulation with an agonist, we examined agonist-induced desensitization by quantifying the accumulation level of IP1 after two applications of the agonist/ligand. Because the IP1 accumulation assay involves using LiCl to stop the degradation of IP1, in this protocol, LiCl was applied only during the second application of the agonist. Specifically, to elicit desensitization, cells were first exposed to 10 μM apTKRP-2b in the absence of LiCl for various pretreatment durations (pretreatment stage/phase Ⅰ). After this agonist exposure, cells were washed (three times) rapidly with PBS (phase Ⅱ), and the wash was consistently performed in each experiment. Responsiveness of the receptor was then assessed by measuring intracellular concentrations of IP1 accumulation in response to a second application of 10 μM apTKRP-2b for 15 min in the presence of LiCl (phase Ⅲ) (Fig. S11).

CC(C)C[C@H](NC(=O)[C@H](Cc1c[nH]cn1)NC(=O)[C@@H]1CCCN1C(=O)[C@@H]1CCC(=O)N1)C(=O)NCC(=O)N[C@@H](Cc1ccccc1)C(=O)N[C@@H](Cc1c[nH]cn1)C(=O)NCC(=O)N[C@@H](CO)C(=O)N[C@@H](CCCNC(=N)N)C(N)=O [apTKRP-2b] ([pGlu]PHLGFHGSR-NH2)
IP1 accumulation after pretreatment, apTKRPR-A (protocol 2): IP1 accumulation was less after the second exposure
